Assay results as given in patent publication US20070213359A1 (ACADIA Pharmaceuticals Inc., priority 2005, published 2007).
Like-named read-outs stand apart in the source and are kept apart here.

Target: Ghrelin receptor (Homo sapiens, UniProt Q92847)
Test: Receptor Selection and Amplification Technology (R-SAT) assay
Format: cell-based
Parameters: expressed in transfected cells; host or cells: NIH3T3
Conditions: for IC50: negative logarithm of ligand concentration causing 50% inhibition of constitutive receptor response, transfected NIH3T3 cells, '—' not defined (nd used separately), read-out: RSAT pIC50 (converted); for Emax: read-out: RSAT Eff(%)
[1] = percent inhibition at saturating ligand, normalized to reference ligand Substance P analog = 100%

Ghrelin receptor, sequence (Q92847 whole entry): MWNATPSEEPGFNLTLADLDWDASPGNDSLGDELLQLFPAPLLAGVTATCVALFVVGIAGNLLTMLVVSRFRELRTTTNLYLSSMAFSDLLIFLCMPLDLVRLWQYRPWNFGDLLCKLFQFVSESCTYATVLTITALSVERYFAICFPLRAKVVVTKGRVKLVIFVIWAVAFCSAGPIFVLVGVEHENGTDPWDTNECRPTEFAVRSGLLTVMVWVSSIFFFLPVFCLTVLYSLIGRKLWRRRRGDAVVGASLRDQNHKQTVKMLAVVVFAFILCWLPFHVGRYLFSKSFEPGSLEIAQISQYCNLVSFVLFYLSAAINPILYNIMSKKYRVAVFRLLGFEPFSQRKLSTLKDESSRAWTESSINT

Structure (SMILES) | IC50 [nM] | Emax [1] [%] | Emax [%]
CCCCC1CCN(CCCn2cc(C(C)=O)c3cccc(Cl)c32)CC1 | 316 | 80 | –
CC(=O)c1cn(CCCCN2CCC(c3nc4ccccc4s3)CC2)c2ccccc12 | 398 | 81 | –
CCCCC1CCN(CCCn2cc(C(=O)CC(C)C)c3ccccc32)CC1 | 398 | 85 | –
CCOC(=O)C1CCN(CCCn2cc(C(C)=O)c3cccc(OC)c32)CC1 | 398 | 127 | –
O=C(c1cn(CCCN2CCC(c3nc4ccccc4s3)CC2)c2ccccc12)C(F)(F)F | 398 | 88 | –
CC(=O)c1c(C)n(CCCN2CCCN(Cc3ccc(F)cc3)CC2)c2c(Br)cccc12 | 398 | 49 | –
COc1ccc2c(C(C)=O)cn(CCCN3CCC(Oc4ccc(Cl)cc4)CC3)c2c1 | 398 | 67 | –
CCCCC1CCN(CCCn2cc(C(C)=O)c3cc(OC)ccc32)CC1 | 398 | 118 | –
COc1cccc2c(C#N)cn(CCCN3CCN(c4ncc(C(F)(F)F)cc4Cl)CC3)c12 | 398 | 97 | –
CC(=O)c1cn(CC(C)CN2C3CCC2CC(OCC2CC2)C3)c2ccccc12 (centres unmarked) | 398 | 65 | –
CC(=O)c1cn(CCN2CCC(Cc3ccccc3)CC2)c2ccccc12 | 398 | 77 | –
CC(=O)c1cn(CCCN2CCC(c3nc(-c4ccccc4)no3)CC2)c2c(Br)cccc12 | 501 | 69 | –
CC(=O)c1cn(CCCN2CCN(CCOc3ccccc3)CC2)c2c(Br)cccc12 | 501 | 91 | –
COc1ccc2c(c1)c(C(C)=O)cn2CCCN1CCC(Oc2ccc(Cl)cc2)CC1 | 501 | 104 | –
COc1ccc2c(C(C)=O)cn(CCCN3C4CCC3CC(OC3=CC=C(Cl)CC3)C4)c2c1 (centres unmarked) | 501 | 108 | –
CC(C)CNC(=O)c1cn(CCCN2CCC(Oc3ccc(F)cc3)CC2)c2ccccc12 | 501 | – | 94
O=C(c1cn(CCCN2C3CCC2CC(OCC2CC2)C3)c2ccccc12)C(F)(F)F (centres unmarked) | 501 | 103 | –
CC(=O)c1cn(CC(C)CN2CCC(Oc3ccc(F)cc3)CC2)c2ccccc12 (centres unmarked) | 501 | 98 | –
CCCCC1CCN(CCCn2cc(C(=O)C(F)(F)F)c3ccccc32)CC1 | 501 | 74 | –
COc1ccc2c(c1)c(C(C)=O)cn2CCCN1CCN(C(C)c2ccccc2)CC1 (centres unmarked) | 501 | 77 | –

Structure (SMILES) | IC50 [nM] | Emax [1] [%] | Emax [%]
CC(=O)c1cn(CCCN2C3CCC2CC(OCC2CC2)C3)c2cc(Br)ccc12 (centres unmarked) | 501 | 130 | –
COc1ccccc1C1CCN(CCCn2cc(C(C)=O)c3cccc(Cl)c32)CC1 | 501 | 103 | –
CC(=O)c1cn(CCCN2C3CCC2CC(CC(=O)c2ccc(Cl)cc2)C3)c2c(Cl)cccc12 (centres unmarked) | 501 | 41 | –
COc1cccc2c(C(C)=O)cn(CCCN3CCN(CC4CCCO4)CC3)c12 (centres unmarked) | 631 | 98 | –
CCCOC1CCN(CC(C)Cn2cc(C(C)=O)c3ccccc32)CC1 (centres unmarked) | 631 | 74 | –
CC(=O)c1cn(CCCN2CCC(c3nc(-c4cccnc4)no3)CC2)c2c(Cl)cccc12 | 631 | 101 | –
O=C(c1ccccc1)C1CCN(CCCn2cc(C(=O)C(F)(F)F)c3ccccc32)CC1 | 631 | 63 | –
COc1ccccc1C1CCN(CCCn2cc(C(=O)CC(C)C)c3ccccc32)CC1 | 631 | 100 | –
CCCCC1CCN(CCCn2cc(C(C)=O)c3ccc(OC)cc32)CC1 | 631 | 63 | –
COc1ccc2c(c1)c(C(C)=O)cn2CCCN1CCC(Oc2ccc(F)cc2)CC1 | 631 | 58 | –
CCCCC1CCN(CCCn2cc(CCC(C)=O)c3ccccc32)CC1 | 631 | 76 | –
CC(=O)c1cn(CCCN2CCN(CCOc3ccccc3)CC2)c2ncccc12 | 631 | 81 | –
CC(=O)c1cn(CCCN2C3CCC2CC(Oc2ccccc2Cl)C3)c2c(C)cccc12 (centres unmarked) | 794 | 101 | –
CCCCC(=O)c1cn(CCCN2CCC(C(=O)c3ccccc3)CC2)c2ccc(OC)cc12 | 794 | – | 98
CCC(=O)c1cn(CCCN2CCC(Oc3ccc(F)cc3)CC2)c2ccccc12 | 794 | 90 | –
COc1ccc2c(C(C)=O)cn(CCCN3CCC(C(=O)c4ccccc4)CC3)c2c1 | 794 | 66 | –
O=C(c1cn(CCCN2CCC(Oc3ccc(F)cc3)CC2)c2ccccc12)C(F)(F)F | 794 | 75 | –
CC(=O)c1cn(CC(C)CN2CCN(C(C)c3ccccc3)CC2)c2ccccc12 (centres unmarked) | 1000 | 35 | –
CCCCC1CCN(CCCn2cc(C(=O)CC)c3ccccc32)CC1 | 1000 | 92 | –
COc1ccc2[nH]c3c(c2c1)CCN(CCCn1cc(C(=O)CC(C)C)c2ccccc21)C3 | 1000 | – | 123
